≈ marks a conversion by molar mass, not a printed value. Where a SMILES comes first, the peptide text is derived from it. [ ]: non-standard residue; d: D form.
Columns and labels:
[1] = tested on: S. aureus; test: microbe, parasite or virus in culture; assay type: cell-based, Staphylococcus aureus
Summary of the method: (§1)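 Each strain is brought to 2×10^6 CFU in nutrient-sufficient Mueller-Hinton medium and dispensed into wells. Peptide solutions, stepwise diluted 2:1 in the same medium, are then added. The minimal concentration preventing growth gives the MIC.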

[2] = tested on: MDRST 8007; test: Minimal inhibitory concentration (MIC), single agent; assay type: cell-based, Salmonella typhimurium; conditions: agent alone
Summary of the method: as §1

[3] = tested on: MDRST 8009; assay type: cell-based, Salmonella typhimurium; conditions: agent alone
Summary of the method: as §1

[4] = tested on: S. typhimurium; test: microbe, parasite or virus in culture; assay type: cell-based, Salmonella typhimurium
Summary of the method: as §1

[5] = tested on: P. aeruginosa; test: microbe, parasite or virus in culture; assay type: cell-based, Pseudomonas aeruginosa
Summary of the method: as §1

[6] = tested on: E. coli; test: MIC of antibiotic during combined treatment with antimicrobial peptide; assay type: cell-based, Escherichia coli; conditions: for Antibiotic MIC, Erythromycin / Antibiotic MIC, Linezolid / Antibiotic MIC, Vancomycin: E. coli
Summary of the method: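 Antibiotic diluted in MH medium, dispensed per well with peptide; setup repeated with roles reversed; MIC read per combination.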

[7] = tested on: MRSA 3126; assay type: cell-based, Staphylococcus aureus; conditions: 3126
Summary of the method: as §1

[8] = tested on: MRSA 3114; assay type: cell-based, Staphylococcus aureus; conditions: 3114
Summary of the method: as §1

[9] = tested on: MDREC 1229; test: MIC of antibiotic during combined treatment with antimicrobial peptide; assay type: cell-based, Escherichia coli
Summary of the method: (§2)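 Antibiotic MIC came from antibiotic dilutions added to bacteria (2×10^6 CFU/ml, MH medium) already combined with peptide serially diluted 2:1 from its own MIC. Swapping the roles of the two agents gave the peptide MIC.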

[10] = tested on: MDRAB 12036; assay type: cell-based, Acinetobacter baumannii
Summary of the method: as §1

[11] = tested on: MDREC 1238; assay type: cell-based, Escherichia coli
Summary of the method: as §1

[12] = tested on: MDREC 1229; test: microbe, parasite or virus in culture; assay type: cell-based, Escherichia coli
Summary of the method: as §1

[13] = tested on: E. coli; test: microbe, parasite or virus in culture; assay type: cell-based, Escherichia coli; conditions: 16 h
Summary of the method: as §1

[14] = tested on: A. baumannii; test: MIC of antimicrobial peptide during combined treatment with antibiotic; assay type: cell-based, Acinetobacter baumannii
Summary of the method: as §2

[15] = tested on: MDRAB 12035; test: as above; assay type: cell-based, Acinetobacter baumannii
Summary of the method: as §2

[16] = tested on: S. epidermidis; test: microbe, parasite or virus in culture; assay type: cell-based, Staphylococcus epidermidis
Summary of the method: as §1

[17] = peptide treatment concentration 1 μg/ml
[18] = peptide treatment concentration 2 μg/ml
[19] = peptide treatment concentration 4 μg/ml
[20] = peptide treatment concentration 6 μg/ml
[21] = peptide treatment concentration 8 μg/ml
[22] = peptide treatment concentration 16 μg/ml
[23] = peptide treatment concentration 32 μg/ml
[24] = peptide treatment concentration 64 μg/ml
[25] = erythromycin 4 μg/ml (Conc./MIC 1/8)
[26] = erythromycin 8 μg/ml (Conc./MIC 1/4)
[27] = erythromycin 16 μg/ml (Conc./MIC 1/2)
[28] = erythromycin 32 μg/ml (Conc./MIC 1)
[29] = vancomycin 512 μg/ml (Conc./MIC 1/2)
[30] = vancomycin 1024 μg/ml (Conc./MIC 1)

For `CC[C@H](C)[C@H](NC(=O)[C@H](CCCCN)NC(=O)[C@H](Cc1c[nH]c2ccccc12)NC(=O)[C@@H](N)CCCNC(=N)N)C(=O)N[C@@H](Cc1ccccc1)C(=O)N[C@@H](CCCCN)C(=O)N[C@@H](CCCCN)C(=O)N[C@H](C(=O)N[C@H](CCCCN)C(=O)N[C@@H](CCCCN)C(=O)N[C@@H](CC(C)C)C(=O)N[C@@H](CC(C)C)C(=O)N[C@@H](Cc1c[nH]cn1)C(=O)N[C@@H](CO)C(=O)N[C@@H](Cc1ccccc1)C(=O)N[C@@H](CCCCN)C(=O)N[C@@H](CCCCN)C(=O)N[C@@H](Cc1ccccc1)C(N)=O)[C@@H](C)CC` [PapMA-15, RWK IFK KIk KLL HSF KKF-NH2] (H-RWKIFKKI[dK]KLLHSFKKF-NH2; N-terminus assumed), the “Minimal inhibitory concentration MIC” value [1] was >128 µg/mL, the “Minimal inhibitory concentration MIC” value [2] was 64 µg/mL (≈ 26.9 µM) and the “Minimal inhibitory concentration MIC” value [3] was 64 µg/mL (≈ 26.9 µM). The “Minimal inhibitory concentration MIC” value [4] was 32 µg/mL (≈ 13.5 µM), the “Minimal inhibitory concentration MIC” value [5] was 32 µg/mL (≈ 13.5 µM) and the “Synergistic effect of antibacterial activity with existing antibiotics compared with PapMA-1” value ([6]; E. coli and MDREC1229) was “level similar to that of the PapMA-1 peptide”. The “Antibiotic MIC, Erythromycin” value ([6]; erythromycin combined with peptide at 1 μg/ml) was 64 µg/mL, the “Antibiotic MIC, Erythromycin” value ([6]; erythromycin combined with peptide at 2 μg/ml) was 32 µg/mL and the “Antibiotic MIC, Erythromycin” value ([6]; erythromycin combined with peptide at 4 μg/ml) was 16 µg/mL. For the same molecule, the “Antibiotic MIC, Erythromycin” value ([6]; erythromycin combined with peptide at 6 μg/ml) was 2 µg/mL, the “Antibiotic MIC, Erythromycin” value ([6]; erythromycin combined with peptide at 8 μg/ml) was 1 µg/mL and the “Antibiotic MIC, Erythromycin” value ([6]; erythromycin combined with peptide at 16 μg/ml) was 0.25 µg/mL. The “Antibiotic MIC, Erythromycin” value ([6]; erythromycin combined with peptide at 32 μg/ml) was 0 µg/mL, the “Antibiotic MIC, Erythromycin” value ([6]; erythromycin combined with peptide at 64 μg/ml) was 0 µg/mL and the “Antibiotic MIC, Linezolid” value ([6]; linezolid combined with peptide at 1 μg/ml) was >128 µg/mL. For the same molecule, the “Antibiotic MIC, Linezolid” value ([6]; linezolid combined with peptide at 2 μg/ml) was 128 µg/mL, the “Antibiotic MIC, Linezolid” value ([6]; linezolid combined with peptide at 4 μg/ml) was 32 µg/mL and the “Antibiotic MIC, Linezolid” value ([6]; linezolid combined with peptide at 6 μg/ml) was 16 µg/mL. For the same molecule, the “Antibiotic MIC, Linezolid” value ([6]; linezolid combined with peptide at 8 μg/ml) was 16 µg/mL, the “Antibiotic MIC, Linezolid” value ([6]; linezolid combined with peptide at 16 μg/ml) was 8 µg/mL and the “Antibiotic MIC, Linezolid” value ([6]; linezolid combined with peptide at 32 μg/ml) was 0 µg/mL. The “Antibiotic MIC, Linezolid” value ([6]; linezolid combined with peptide at 64 μg/ml) was 0 µg/mL, the “Antibiotic MIC, Vancomycin” value ([6]; vancomycin combined with peptide at 1 μg/ml) was >128 µg/mL and the “Antibiotic MIC, Vancomycin” value ([6]; vancomycin combined with peptide at 2 μg/ml) was >128 µg/mL. For the same molecule, the “Antibiotic MIC, Vancomycin” value ([6]; vancomycin combined with peptide at 4 μg/ml) was >128 µg/mL, the “Antibiotic MIC, Vancomycin” value ([6]; vancomycin combined with peptide at 6 μg/ml) was 64 µg/mL and the “Antibiotic MIC, Vancomycin” value ([6]; vancomycin combined with peptide at 8 μg/ml) was 32 µg/mL. For the same molecule, the “Antibiotic MIC, Vancomycin” value ([6]; vancomycin combined with peptide at 16 μg/ml) was 16 µg/mL, the “Antibiotic MIC, Vancomycin” value ([6]; vancomycin combined with peptide at 32 μg/ml) was 0 µg/mL and the “Antibiotic MIC, Vancomycin” value ([6]; vancomycin combined with peptide at 64 μg/ml) was 0 µg/mL. The “Minimal inhibitory concentration MIC” value [7] was >128 µg/mL, the “Minimal inhibitory concentration MIC” value [8] was >128 µg/mL and the “Antibiotic MIC, Erythromycin” value [9, 17] was >128 µg/mL. The “Antibiotic MIC, Linezolid” value [9, 17] was >128 µg/mL, the “Antibiotic MIC, Vancomycin” value [9, 17] was >128 µg/mL and the “Antibiotic MIC, Erythromycin” value [9, 18] was 32 µg/mL. For the same molecule, the “Antibiotic MIC, Linezolid” value [9, 18] was 128 µg/mL, the “Antibiotic MIC, Vancomycin” value [9, 18] was >128 µg/mL and the “Antibiotic MIC, Erythromycin” value [9, 19] was 16 µg/mL. For the same molecule, the “Antibiotic MIC, Linezolid” value [9, 19] was 64 µg/mL, the “Antibiotic MIC, Vancomycin” value [9, 19] was >128 µg/mL and the “Antibiotic MIC, Erythromycin” value [9, 20] was 8 µg/mL. For the same molecule, the “Antibiotic MIC, Linezolid” value [9, 20] was 64 µg/mL, the “Antibiotic MIC, Vancomycin” value [9, 20] was 64 µg/mL and the “Antibiotic MIC, Erythromycin” value [9, 21] was 4 µg/mL. The “Antibiotic MIC, Linezolid” value [9, 21] was 32 µg/mL, the “Antibiotic MIC, Vancomycin” value [9, 21] was 32 µg/mL and the “Antibiotic MIC, Erythromycin” value [9, 22] was 1 µg/mL. For the same molecule, the “Antibiotic MIC, Linezolid” value [9, 22] was 16 µg/mL, the “Antibiotic MIC, Vancomycin” value [9, 22] was 16 µg/mL and the “Antibiotic MIC, Erythromycin” value [9, 23] was 0 µg/mL. The “Antibiotic MIC, Linezolid” value [9, 23] was 0 µg/mL, the “Antibiotic MIC, Vancomycin” value [9, 23] was 0 µg/mL and the “Antibiotic MIC, Erythromycin” value [9, 24] was 0 µg/mL. For the same molecule, the “Antibiotic MIC, Linezolid” value [9, 24] was 0 µg/mL, the “Antibiotic MIC, Vancomycin” value [9, 24] was 0 µg/mL and the “Minimal inhibitory concentration MIC” value [10] was 32 µg/mL (≈ 13.5 µM). The “Minimal inhibitory concentration MIC” value [11] was 32 µg/mL (≈ 13.5 µM), the “Minimal inhibitory concentration MIC” value [12] was 32 µg/mL (≈ 13.5 µM) and the “Peptide MIC, peptide alone” value [12] was 32 µg/mL. For the same molecule, the “Minimal inhibitory concentration MIC” value [13] was 32 µg/mL (≈ 13.5 µM), the “Peptide MIC during treatment with antibiotic” value [14, 25] was 4 µg/mL and the “Peptide MIC during treatment with antibiotic” value [14, 26] was 4 µg/mL. For the same molecule, the “Peptide MIC during treatment with antibiotic” value [14, 27] was 4 µg/mL, the “Peptide MIC during treatment with antibiotic” value [14, 28] was 0 µg/mL and the “Peptide MIC during treatment with antibiotic” value ([14]; linezolid 32 μg/ml (Conc./MIC 1/8)) was 8 µg/mL. For the same molecule, the “Peptide MIC during treatment with antibiotic” value ([14]; linezolid 64 μg/ml (Conc./MIC 1/4)) was 4 µg/mL, the “Peptide MIC during treatment with antibiotic” value ([14]; linezolid […] (Conc./MIC 1)) was 0 µg/mL and the “Peptide MIC during treatment with antibiotic” value ([14]; linezolid […] (Conc./MIC 1/2)) was 2 µg/mL. For the same molecule, the “Peptide MIC during treatment with antibiotic” value [14, 29] was 0.25 µg/mL, the “Peptide MIC during treatment with antibiotic” value [14, 30] was 0 µg/mL and the “Peptide MIC during treatment with antibiotic” value ([14]; vancomycin […] (Conc./MIC 1/4)) was 0.5 µg/mL. The “Peptide MIC during treatment with antibiotic” value ([14]; vancomycin […] (Conc./MIC 1/8)) was 2 µg/mL, the “Peptide MIC during treatment with erythromycin” value [15, 25] was 4 µg/mL and the “Peptide MIC during treatment with erythromycin” value [15, 26] was 4 µg/mL. The “Peptide MIC during treatment with erythromycin” value [15, 27] was 4 µg/mL, the “Peptide MIC during treatment with erythromycin” value [15, 28] was 0 µg/mL and the “Peptide MIC during treatment with linezolid” value ([15]; linezolid 64 μg/ml (Conc./MIC 1/8)) was 4 µg/mL. The “Peptide MIC during treatment with linezolid” value ([15]; linezolid 512 μg/ml (Conc./MIC 1)) was 0 µg/mL, the “Peptide MIC during treatment with linezolid” value ([15]; linezolid […] (Conc./MIC 1/2)) was 1 µg/mL and the “Peptide MIC during treatment with linezolid” value ([15]; linezolid […] (Conc./MIC 1/4)) was 4 µg/mL. For the same molecule, the “Peptide MIC during treatment with vancomycin” value [15, 29] was 2 µg/mL, the “Peptide MIC during treatment with vancomycin” value [15, 30] was 1 µg/mL and the “Peptide MIC during treatment with vancomycin” value ([15]; vancomycin […] (Conc./MIC 1/4)) was 2 µg/mL. For the same molecule, the “Peptide MIC during treatment with vancomycin” value ([15]; vancomycin […] (Conc./MIC 1/8)) was 4 µg/mL and the “Minimal inhibitory concentration MIC” value [16] was >128 µg/mL.

— US11214594B2, “Antimicrobial peptide having synergistic antibacterial effect with antibiotics on multidrug resistant bacteria, and use thereof” (priority 2016, dated 2022)
